Assay type in all cases: cell-based
One experiment deals with E. coli JT 425. Nature of the experiment: Antibacterial activity (MIC). As to conditions: Escherichia coli, JT425, Agar.
For another experiment, the system named is P. mirabilis C 977. Nature of the experiment: Antibacterial activity (MIC). As to conditions: Proteus mirabilis, C977, Agar.
The next experiment relates to S. marcescens US 32. Nature of the experiment: Antibacterial activity (MIC). As to conditions: Serratia marcescens, US32, Agar.
The test system of experiment [1] is Ps. aeruginosa NCTC 10662 10^-2. Nature of the experiment: Antibacterial activity (MIC), 10^-2. As to conditions: Pseudomonas aeruginosa.
A further experiment relates to E. coli NCTC 10418. Nature of the experiment: Antibacterial activity (MIC). As to conditions: Escherichia coli.
Experiment [2] deals with Ps. aeruginosa Dalgleish 10^-2. As to the kind of experiment: Antibacterial activity (MIC), 10^-2. As to conditions: Pseudomonas aeruginosa, Agar.
The subject of another experiment is K. aerogenes A. Nature of the experiment: Antibacterial activity (MIC). To be noted: Klebsiella aerogenes.
In experiment [3] the test system is Ps. aeurginosa NCTC 10662. As to the kind of experiment: Antibacterial activity (MIC).
The next experiment concerns E. cloacae N1. Nature of the experiment: Antibacterial activity (MIC). As to conditions: Enterobacter cloacae, Agar.
The test system of another experiment is E. coli JT 4. As to the kind of experiment: Antibacterial activity (MIC). To be noted: Escherichia coli, JT4, Agar.
In the next experiment the test system is E. coli ESS. As to the kind of experiment: Antibacterial activity (MIC). As to conditions: Escherichia coli, Agar.

Regarding `CO[C@@]1(NC(=O)[C@@H](c2ccc(OC(C)=O)c(OC(C)=O)c2)S(=O)(=O)O)C(=O)N2[C@@H](C(=O)O)C(C)(C)S[C@@H]21` [Example 8, Disodium 6,β-[R-2-(3,4-diacetoxyphenyl)-2-sulphoacetamido]-6,a-methoxypenicillanate], the MIC against E. coli JT 425 was 1 µg/mL; with P. mirabilis C 977 it was 10 µg/mL; in the experiment with S. marcescens US 32, 25 µg/mL; in experiment [1] (NCTC10662, Agar), 0.5 µg/mL; in [1] (NCTC10662, Broth), 0.5 µg/mL; in the experiment on E. coli NCTC 10418 (NCTC10418, Agar) it was 2.5 µg/mL. Also, the MIC against E. coli NCTC 10418 (NCTC10418, Broth) is 5 µg/mL; in experiment [2] it was 0.5 µg/mL; against K. aerogenes A (Agar), 5 µg/mL; with K. aerogenes A (Broth), 10 µg/mL; in experiment [3] (Agar), 2.5 µg/mL; in experiment [3] (Broth) it was 1 µg/mL. Moreover, the figures for the minimal inhibitory concentration (MIC) with E. cloacae N1, with E. coli JT 4 and against E. coli ESS were 25 µg/mL, 2.5 µg/mL and 0.2 µg/mL, respectively.

As for `CO[C@@]1(NC(=O)[C@@H](c2ccc(O)c(O)c2)S(=O)(=O)O)C(=O)N2[C@@H](C(=O)O)C(C)(C)S[C@@H]21` [Example 9, Disodium 6,β-[R-2-(3,4-dihydroxyphenyl)-2-sulphoacetamido] -6,a-methoxypenicillanate], the MIC worked out at 1 µg/mL against E. coli JT 425; 25 µg/mL in the experiment with P. mirabilis C 977; 25 µg/mL against S. marcescens US 32; 0.5 µg/mL in [1] (NCTC10662, Agar); 2.5 µg/mL with E. coli NCTC 10418 (NCTC10418, Agar); 0.5 µg/mL in [2]. Further, the MIC against K. aerogenes A (Agar) was 5 µg/mL; in [3] (Agar), 2.5 µg/mL; in the experiment on E. cloacae N1 it was 50 µg/mL; in the experiment on E. coli JT 4, 2.5 µg/mL; against E. coli ESS, 0.1 µg/mL.

In the case of `CO[C@@]1(NC(=O)C(c2ccc(O)c(O)c2)S(=O)(=O)O)C(=O)N2[C@@H](C(=O)O)C(C)(C)S[C@@H]21` (stereo partly drawn) [Example 4, Disodium 6,β-[R,S-2-(3,4-dihydroxyphenyl)-2-sulphoacetamido]-6,a-methoxypenicillanate], the minimal inhibitory concentration (MIC) turned out to be 5 µg/mL with E. coli JT 425; 25 µg/mL against P. mirabilis C 977; 25 µg/mL in the experiment with S. marcescens US 32; 5 µg/mL in [1] (NCTC10662, Agar); 5 µg/mL in the experiment with E. coli NCTC 10418 (NCTC10418, Agar); 2.5 µg/mL in [2]. In addition, the MIC against K. aerogenes A (Agar) came out at 5 µg/mL; in [3] (Agar), 2.5 µg/mL; in the experiment with E. cloacae N1, 50 µg/mL; against E. coli JT 4, 5 µg/mL; against E. coli ESS it was 0.5 µg/mL.

Take `CO[C@@]1(NC(=O)C(c2ccc(OC(C)=O)c(OC(C)=O)c2)S(=O)(=O)O)C(=O)N2[C@@H](C(=O)O)C(C)(C)S[C@@H]21` (stereo partly drawn) [Example 3, Disodium 6,β-[R,S-2-(3,4-diacetoxyphenyl)-2-sulphoacetamido]-6,a-methoxypenicillanate]: the MIC was 2.5 µg/mL against E. coli JT 425; 25 µg/mL in the experiment with P. mirabilis C 977; 25 µg/mL with S. marcescens US 32; 2.5 µg/mL in experiment [1] (NCTC10662, Agar); 5 µg/mL in experiment [1] (NCTC10662, Broth); 2.5 µg/mL with E. coli NCTC 10418 (NCTC10418, Agar). The MIC in the experiment on E. coli NCTC 10418 (NCTC10418, Broth) is 5 µg/mL; in experiment [2] it was 2.5 µg/mL; with K. aerogenes A (Agar) it was 10 µg/mL; against K. aerogenes A (Broth) it was 25 µg/mL; in experiment [3] (Agar), 2.5 µg/mL; in experiment [3] (Broth) it was 5 µg/mL. Further, the MIC in the experiment with E. cloacae N1 was 50 µg/mL; against E. coli JT 4 it was 2.5 µg/mL; in the experiment on E. coli ESS, 0.2 µg/mL.
